Patent publication US20260182572A1, “HERBICIDAL COMPOSITIONS” (SYNGENTA CROP PROTECTION AG, priority 2022, published 2026)

Key:
Type in all cases: in vivo
Conditions in all cases: sprayed after 8 days, evaluated after 13 days
[1] = tested on: Amaranthus retroflexus (AMARE); experiment: Glasshouse post-emergence phytotoxicity test, Amaranthus retroflexus (AMARE)
Procedure: (§1) Seeds of Amaranthus retroflexus (AMARE), Echinochloa crus-galli (ECHCG), Digitaria sanguinalis (DIGSA), Lolium perenne (LOLPE), Alopecurus myosuroides (ALOMY), Chenopodium album (CHEAL), and Ipomoea hederacea (IPOHE) were sown in standard sterilised soil in pots. After cultivation for 8 days under controlled conditions in a glasshouse (at 24/16° C., day/night; 14 hours light; 65% humidity), the plants were sprayed at 500 l/Ha with an aqueous spray solution derived from the formulation of the technical active ingredients in a small amount of acetone and a solvent and emulsifier mixture referred to as IF50 (11.12% Emulsogen EL360 TM+44.44% N-methylpyrrolidone+44.44% Dowanol DPM glycol ether), to create a 50 g/l solution which was then diluted using 0.2% Genapol XO80 (CAS Number: 9043-30-5) as diluent to give the desired final dose of test compound. Where active ingredients were applied as mixtures, aqueous spray solutions were prepared as above, containing both active ingredients. The test plants were then grown under controlled conditions in a glasshouse (at 24/16° C., day/night; 14 hours light; 65% humidity) and watered twice daily. After 13 days, the test was evaluated visually for percentage phytotoxicity to the plants (where 100=total damage to plant; 0=no damage to plant) when compared to control untreated plants. Two to four replicates were applied for each treatment in a randomised block test design.
(§2) 22., E=X+Y−(X*Y/100), where • X=average percent phytotoxicity of herbicide A when applied at a certain rate • Y=average percent phytotoxicity using herbicide B when applied at a certain rate • E=the expected effect of the mixture of herbicides A and B as calculated from the Colby formula.

[2] = tested on: Ipomoea hederacea (IPOHE); experiment: Glasshouse post-emergence phytotoxicity test, Ipomoea hederacea (IPOHE)
Procedure: as §1, §2

Lolium perenne (LOLPE) = experiment: Glasshouse post-emergence phytotoxicity test, Lolium perenne (LOLPE)
Procedure: as §1, §2

[3] = tested on: Digitaria sanguinalis (DIGSA); experiment: Glasshouse post-emergence phytotoxicity test, Digitaria sanguinalis (DIGSA)
Procedure: as §1, §2

[4] = tested on: Chenopodium album (CHEAL); experiment: Glasshouse post-emergence phytotoxicity test, Chenopodium album (CHEAL)
Procedure: as §1, §2

[5] = tested on: Echinochloa crus-galli (ECHCG); experiment: Glasshouse post-emergence phytotoxicity test, Echinochloa crus-galli (ECHCG)
Procedure: as §1, with “Where active ingredients were applied as mixtures, aqueous spray solutions were prepared as above, containing both active ingredients. The test plants were then grown under controlled conditions in a glasshouse (at 24/16° C., day/night; 14 hours light; 65% humidity) and watered twice daily.” left out, “Two to four replicates were applied for each treatment in a randomised block test design.” left out
as §2

[6] = tested on: Alopecurus myosuroides (ALOMY); experiment: Glasshouse post-emergence phytotoxicity test, Alopecurus myosuroides (ALOMY)
Procedure: as §1, §2

Structure (SMILES)	Observed percentage phytotoxicity ([1]; rate 0.078 g/ha) [%]	Observed percentage phytotoxicity ([2]; rate 0.313 g/ha) [%]	Observed percentage phytotoxicity (Lolium perenne (LOLPE); rate 0.156 g/ha) [%]	Observed percentage phytotoxicity (Lolium perenne (LOLPE); rate 0.313 g/ha) [%]	Observed percentage phytotoxicity ([3]; rate 0.313 g/ha) [%]	Observed percentage phytotoxicity ([4]; rate 0.156 g/ha) [%]	Observed percentage phytotoxicity ([4]; rate 0.313 g/ha) [%]	Observed percentage phytotoxicity ([3]; rate 0.156 g/ha) [%]	Observed percentage phytotoxicity ([6]; rate 0.039 g/ha) [%]	further results
COC(=O)CCNC(=O)C(C)Sc1cc(-n2c(=O)cc(C(F)(F)F)n(C)c2=O)c(F)cc1Cl (stereo not drawn) [B-II]	30	40	5	3	8	18	18			Observed percentage phytotoxicity ([2]; rate 0.156 g/ha): 18%; Observed percentage phytotoxicity ([4]; rate 0.078 g/ha): 15%
C=CCOC(=O)C(C)(C)OC(=O)c1cc(-n2c(=O)cc(C(F)(F)F)n(C)c2=O)ccc1Cl [B-I]	33			5	10	20	40	5	0	Observed percentage phytotoxicity (Lolium perenne (LOLPE); rate 0.039 g/ha): 0%; Observed percentage phytotoxicity (Lolium perenne (LOLPE); rate 0.625 g/ha): 5%; Observed percentage phytotoxicity ([5]; rate 0.625 g/ha): 5%; Observed percentage phytotoxicity ([3]; rate 0.625 g/ha): 15%; Observed percentage phytotoxicity ([6]; rate 0.625 g/ha): 8%
c1cc[n+]2c(c1)-c1cccc[n+]1CC2 [B-III]										Observed percentage phytotoxicity ([1]; rate 3.75 g/ha): 8%; Observed percentage phytotoxicity ([2]; rate 7.5 g/ha): 5%; Observed percentage phytotoxicity ([4]; rate 15 g/ha): 15%
COC(=O)[C@@H](C)O/N=C/c1cc(-n2c(=O)cc(C(F)(F)F)n(C)c2=O)c(F)cc1Cl [A]	39	68	0	5	9	24	31	3	0	Observed percentage phytotoxicity ([1]; rate 0.156 g/ha): 68%; Observed percentage phytotoxicity ([2]; rate 0.078 g/ha): 20%; Observed percentage phytotoxicity (Lolium perenne (LOLPE); rate 0.078 g/ha): 3%; Observed percentage phytotoxicity ([5]; rate 0.313 g/ha): 1%; Observed percentage phytotoxicity ([6]; rate 0.313 g/ha): 3%; Observed percentage phytotoxicity ([4]; rate 0.625 g/ha): 33%
